Assay results: patent US20020198161A1, “THERAPEUTIC USES OF ANTIOXIDANTS” (priority 1997, published 2002)
“Also recorded” adds a separate entry of the source.

Experiments:
tMEF p53+/+ cells [1] = assay: Apoptosis / viability in E1A/Ha-ras-transformed MEF (tMEF p53+/+); type: cell-based, mouse; conditions: for apoptosis in E1A/Ha-ras transformed cells (viability, DNA fragmentation, flow cytometry): 50 μM DMP, 20 mM OTC, 24-48 h; for effect on cell viability (trypan blue exclusion) / apoptosis (DNA analysis): p53+/+ tMEF; for effect on cell viability (trypan blue exclusion): 48 h, tocopherol acetate 200 μM, Trolox 200 μM, BHA 100 μM; for apoptosis (DNA analysis): chain-breaking antioxidants
Procedure: Cell Lines. MEF primary mouse embryo fibroblast cells (passage <5) and E1A/Ha-ras-transformed MEF were as in Lowe (18). […] The (Rostein, J. B. et al., 1988, Mutation Research 202:421-427) 1 mouse embryo fibroblast cell line was as in Levine (Harney, D. M. et al., 1991, Genes Dev. 5:2375-2385). BALB/c 3T3 A31 cells were obtained from the American Type Culture Collection (Bethesda, Md.). 308 papilloma cells were maintained in 0.05 mM Ca2+ EMEM medium with 10% fetal bovine serum, and all other cells were grown in DMEM medium with 10% heat-inactivated fetal bovine serum. Cell culture confluence was maintained below 80%.
(§1) Chemicals and Cell Treatments. All chemicals were obtained from Sigma, except for Trolox which was purchased from Aldrich. These compounds were freshly dissolved in medium and adjusted to neutral pH if necessary, or (for vitamin E acetate, Trolox, and BHA) first dissolved in ethanol and added to the medium. Cell viability was determined by trypan blue exclusion as a measure of cell death independent of any growth suppression by p53.
(§2) Apoptosis Assays. For fixed cells, apoptosis-associated DNA strand breaks were visualized by fluorescent in situ end-labeling as previously described (Ziegler, A. et al., 1994, Nature 372:773-776). For isolated DNA, DNA fragmentation analysis was performed (Lowe, S. W. et al., 1993, Cell 74:957-967).
(§3) For flow cytometry analysis, approximately 10^6 cells per sample were washed with ice-cold PBS and fixed in 95% ethanol. Cells were then resuspended in 1 mg/ml RNase (Sigma) for 30 min at 37° C. and stained with 0.05 mg/ml propidium iodide (Sigma) for 1 h on ice. Flow cytometric analysis was performed with a FACS Vantage flow cytometer (Becton-Dickinson). Cells were excited at 488 nm and the emission was detected through a 630/22 nm band pass filter. A minimum of 10,000 cells were analyzed for each sample. Cell cycle analysis was performed using the Modfit 5.2 software (Verity Software House). […] Cellular debris was gated out using the electronic threshold.

MEF p53+/+ cells = assay: Apoptosis / viability in normal primary MEF (MEF p53+/+); type: cell-based, mouse; conditions: for apoptosis in normal counterparts: normal MEF, 50 μM DMP, 20 mM OTC
Source text: (§4) Cell Lines. MEF primary mouse embryo fibroblast cells (passage <5) and E1A/Ha-ras-transformed MEF were as in Lowe (18). The 308 papilloma cell line, which has a mutant Ha-ras allele (Strickland, J. E. et al., 1988, Cancer Res. 48) and wild-type p53 (Liu, M. et al., 1995, Oncogene 10:1955-1960) were also utilized. The (Rostein, J. B. et al., 1988, Mutation Research 202:421-427) 1 mouse embryo fibroblast cell line was as in Levine (Harney, D. M. et al., 1991, Genes Dev. 5:2375-2385). BALB/c 3T3 A31 cells were obtained from the American Type Culture Collection (Bethesda, Md.). 308 papilloma cells were maintained in 0.05 mM Ca2+ EMEM medium with 10% fetal bovine serum, and all other cells were grown in DMEM medium with 10% heat-inactivated fetal bovine serum. Cell culture confluence was maintained below 80%.
as §1, §2, §3

[2] = system: p53-/- tMEF and MEF cells; assay: Apoptosis / viability in transformed and normal primary cells from p53-/- null mice; type: cell-based, mouse; conditions: for p53 requirement of apoptosis induction: p53-/- versus p53+/+ transformed MEF
Source text: as §4, §1, §2

[3] = system: p53+/+ colorectal carcinoma cell line RKO; assay: Apoptosis in colorectal carcinoma cell line RKO; type: cell-based; conditions: human p53+/+ RKO cells
Procedure: as §2

tMEF p53+/+ cells [4] = assay: GSH and total thiols in tMEF p53+/+ cells (GSH-400 kit); type: cell-based, mouse; conditions: 20 μM BSO 1 h preincubation then 20 μM BSO + 20 mM NAC 5 h
Procedure: FIG. 6. Analysis of GSH, total thiols, and viability in tMEF p53+/+ cells treated with BSO and/or NAC. Cells treated with both compounds were preincubated with medium containing 20 μM BSO for 1 h and then treated with medium containing 20 μM BSO and 20 mM NAC for 5 h (GSH and thiols) or for 24 h (viability).
Measurement of GSH and Total Thiols. Cells (4×106) were harvested from each sample. The GSH-400 kit (R & D Systems) was used following the manufacturer's instructions.

308 papilloma cells [5] = assay: Cell viability by trypan blue exclusion in 308 papilloma cells; type: cell-based, murine; conditions: NAC dose range
Source text: as §4, §1

308 papilloma cells [6] = assay: Apoptosis-associated DNA strand breaks, fluorescent in situ end-labeling, 308 cells; type: cell-based, murine; conditions: 20 mM NAC, 24 h
Source text: as §4, §2

p53 protein [7] = assay: p53 protein level in 308 cells (Western blot); type: cell-based, murine; conditions: dose-dependent, within 3 to 8 hours
Source text: as §4
(§5) Northern and Western Blot Analysis. Northern and Western blot analysis were performed as previously described (Liu, M. et al., 1995, Oncogene 10:1955-1960).

p53 mRNA = p53 mRNA steady-state level in 308 cells (Northern blot); type: cell-based, murine; conditions: 20 mM NAC, 5 h
Source text: as §4, §5

p53 protein [8] = assay: p53 protein synthesis rate in 308 cells (35S-methionine labeling); type: cell-based, murine; conditions: 20 mM NAC, 5 h post-treatment
Procedure: Analysis of p53 Protein Synthesis. Cultures of 308 cells were treated in the absence or presence of 20 mM NAC. At 4.5 h post-treatment, cells were incubated with methionine-free medium containing 2% dialyzed and chelexed fetal bovine serum for 0.5 h. At 5 h post-treatment, biosynthetic labeling was initiated by adding 200 μCi of ^35S-methionine per ml of methionine-free medium. The labeling was terminated at 5, 10, or 15 min. Throughout the experiment, 20 mM NAC was included in the group of NAC-treated cells. Cells were then washed twice with 10 ml of ice-cold PBS, scraped, and pelleted by centrifugation at 1500 rpm at 4° C. for 5 min. The supernatant was removed, and the cell pellet was lysed in ice-cold cell lysis buffer (0.5% Triton X-100, 300 mM NaCl, 50 mM Tris-HCl, pH 7.4, 10 μg/ml leupeptin, 0.1 mM phenylmethylsulfonyl fluoride). Aliquots of cell lysate containing equal amounts of protein (30 μg) were subjected to immunoprecipitation analysis with anti-p53 antibody PAb122 (25) and Protein A-agarose (GIBCO-BRL). The immunoprecipitated proteins were resolved on a 10% SDS-PAGE gel. The levels of synthesized p53 protein were then determined by densitometric scanning using a Hewlett-Packard ScanJet 4P Scanner and the NIH image 1.59 analysis software.

p53 = p53 induction in BALB/c 3T3 A31 fibroblast cell line; type: cell-based, murine; conditions: BALB/c 3T3 A31 cells
Source text: as §4, §5

p53 protein [9] = assay: p53 induction in normal MEF p53+/+ cells (immunohistochemical staining); type: cell-based, mouse; conditions: 20 mM NAC, 5 h
Procedure: FIGS. 2A-2C. p53-dependent apoptosis by NAC is selective for transformed cells. FIG. 2A: viability of normal (MEF) and transformed (tMEF) cells measured by trypan blue exclusion after treatment with NAC for 24 h. FIG. 2B: analysis of DNA fragmentation from tMEF cells exposed to NAC. FIG. 2C: immunohistochemical staining of p53 protein in p53+/+ MEF cells after 5 h exposure to 20 mM NAC.
as §4

DNA = conditions: literature references; cited from earlier work

SMILES	apoptosis in E1A/Ha-ras transformed cells (viability, DNA fragmentation, flow cytometry) (tMEF p53+/+ cells [1]; transformed MEF)	apoptosis in normal counterparts (MEF p53+/+ cells)	p53 requirement of apoptosis induction [2]	apoptosis induction [3]	effect on cell viability (trypan blue exclusion) (tMEF p53+/+ cells [1])	apoptosis (DNA analysis) (tMEF p53+/+ cells [1])	further results
O=C(O)CCCC[C@@H]1CCSS1 (racemic) [lipoic acid]	behaved similarly	behaved similarly	required p53	induced apoptosis	–	–	–
COc1ccc(O)c(C(C)(C)C)c1 [BHA]	–	–	–	–	little effect on cell viability; also recorded: do not induce cell death	no apoptosis occurred	–
CCCCS(=N)(=O)CCC(N)C(=O)O [BSO, L-buthionine sulfoximine]	–	–	–	–	–	–	effect on NAC-induced apoptosis (viability) (tMEF p53+/+ cells [1]; tMEF p53+/+, 20 μM BSO + 20 mM NAC 24 h): did not block NAC-induced apoptosis; also recorded: cannot block NAC-induced apoptosis; effect on induction of cellular GSH by NAC (tMEF p53+/+ cells [4]): completely blocks induction of cellular GSH by NAC; also recorded: inhibits cellular GSH elevation by NAC; effect on induction of total thiols by NAC (tMEF p53+/+ cells [4]): only partially blocking the induction of total thiols
OCC(S)CS (centres unmarked) [DMP, 2,3-dimercaptopropanol]	selectively induced apoptosis	not in their normal counterparts	required p53	induced apoptosis	–	–	doses at which active (apoptosis induction) (tMEF p53+/+ cells [1]; transformed MEF): ≥ 50 µM
CC(=O)N[C@@H](CS)C(=O)O [NAC, N-acetylcysteine]	–	–	–	induced apoptosis	–	–	cell death (cell viability by trypan blue exclusion) (308 papilloma cells [5]): dose-dependent cell death; in situ end-labeling of DNA strand-breaks (apoptosis) (308 papilloma cells [6]): showing in situ end-labeling of DNA strand-breaks; NAC-induced apoptosis (viability, DNA fragmentation) (tMEF p53+/+ cells [1]; tMEF p53+/+, NAC 24 h): sensitive to NAC-induced apoptosis; NAC-induced apoptosis (viability) (MEF p53+/+ cells; normal MEF p53+/+, NAC 24 h): strikingly resistant; NAC-induced apoptosis (viability) ([2]; transformed and normal primary cells from p53-/- null mice, NAC 24 h): deficient in apoptosis induced by NAC; increase of p53 protein levels (p53 protein [7]): 5- to 10 fold; steady-state level of p53 mRNA vs control (p53 mRNA): no major difference; elevation of biosynthetic rate of p53 protein (p53 protein [8]): ~5 fold; p53 induction (p53): induced p53; p53 induction (p53 protein [9]): p53 was induced; induction of DNA damage (DNA): does not induce DNA damage
O=C1N[C@H](C(=O)O)CS1 [OTC, L-2-oxo-4-thiazolidinecarboxylate]	selectively induced apoptosis	not in their normal counterparts	required p53	induced apoptosis	–	–	–
Cc1c(C)c2c(c(C)c1O)CCC(C)(C(=O)O)O2 (centres unmarked) [Trolox]	–	–	–	–	little effect on cell viability; also recorded: do not induce cell death	no apoptosis occurred; also recorded: did not induce p53-dependent apoptosis	–
CC(=O)Oc1c(C)c(C)c2c(c1C)CCC(C)(CCC[C@H](C)CCC[C@H](C)CCCC(C)C)O2 (some centres unmarked) [vitamin E acetate, tocopherol acetate]	–	–	–	–	little effect on cell viability	no apoptosis occurred; also recorded: did not induce p53-dependent apoptosis	effect on cell viability (trypan blue exclusion) (tMEF p53+/+ cells [1]; listed as tocopherol acetate): do not induce cell death
